Data set [1] relates to L858R/T790M EGFR mutant kinase. The arrangement: method as in PMID 27251290. Particulars: cited from earlier work.
The conditions of data set [2]: mouse, in vivo. The protocol:
A 4-h pilot experiment was performed in female wild-type (WT) and double-knockout Abcb1a/1b;Abcg2^-/- mice, with oral administration of 20 mg/kg EAI045. As shown in Supplemental Figure S2A,B, EAI045 was very rapidly absorbed in all strains, with an apparent tmax around 5 min.
We further measured the brain, liver, kidney, spleen, lung, and small intestine with content (SIWC) concentrations of EAI045 4 h after oral administration. Whereas at t = 4 h the plasma concentrations between the two strains were similar, the brain concentrations and brain-to-plasma ratios in Abcb1a/1b;Abcg2^-/- mice were dramatically higher than those in WT mice (25-fold and 12-fold, respectively, Supplemental Figure S3A,B). […] In contrast, the small intestine with content (SIWC) percentage of dose (SIWC%) and SIWC%-to-plasma ratio was reduced in Abcb1a/1b;Abcg2^-/- mice (Supplemental Figure S3K,L).
Mice (Mus musculus) were bred in the Netherlands Cancer Institute and housed and handled according to institutional guidelines complying with Dutch and EU legislation. Animals used were WT, Abcb1a/1b^-/- [39], Abcg2^-/- [40], Abcb1a/1b;Abcg2^-/- [41], Cyp3a^-/- [42], and Oatp1a/1b^-/- [43] mice of a >99% FVB/N strain background. Homozygous CYP3A4 humanized transgenic mice (Cyp3aXAV) were generated by cross-breeding of transgenic mice with stable human CYP3A4 expression in the liver or intestine, respectively, in a Cyp3a^-/- background. Proper functionality of the knockout and transgenic strains was monitored by regular testing with a variety of drug substrates. All the mice used were between 10 and 15 weeks of age. Animals were kept in a temperature-controlled environment with a 12 h light/12 h dark cycle and received a standard diet (Transbreed, SDS Diets, Technilab-BMI, The Netherlands) and acidified water ad libitum. Depending on the type of experiment, 5 or 6 mice were tested in each experimental group. All experimental animal protocols, including power calculations, were ethically assessed and designed under the nationally approved DEC/CCD project AVD301002016595 (approval date, 10 August 2016) and evaluated and approved by the institutional animal care and use committee (IACUC) of the Netherlands Cancer Institute.
EAI045 was dissolved in dimethyl sulfoxide (DMSO) at a concentration of 4 mg/mL, and then diluted with a mixture of polysorbate 80/ethanol (1:1, v/v), and further diluted with 5% (w/v) glucose in water to yield a concentration of 2 mg/mL. Final concentrations for DMSO, polysorbate 80, ethanol, and glucose in the dosing solution were 5%, 2.5%, 2.5%, and 4.5% (v/v/v/w), respectively. […]

Results on one compound are retold here after publication PMC9505538, “P-Glycoprotein (MDR1/ABCB1) Restricts Brain Accumulation of the Novel EGFR Inhibitor EAI045 and Oral Elacridar Coadministration Enhances Its Brain Accumulation and Oral Exposure” (Pharmaceuticals, 2022).

`O=C(Nc1nccs1)C(c1cc(F)ccc1O)N1Cc2ccccc2C1=O` (centres unmarked) [EAI045]: in data set [1], the “inhibition of the EGFR mutant relative to wild-type EGFR” value was “most selective inhibition”. Further, the “percentage of dose left in intestinal lumen (SIWC%)” value in data set [2] is reported as 1.7%. Moreover, in data set [2] (po, 20 mg/kg), the apparent tmax entry is given as “around 5 min” and the “plasma exposure over 4 h (AUC0–4h)” value was “not meaningfully altered”. Besides, the brain-to-plasma ratio in data set [2] (po, 20 mg/kg, 4 h) was 0.15.
